Test results taken from patent publication US12077503B2, “Substituted cyclic amides and their use as herbicides” (FMC CORPORATION, priority 2015, dated 2024).

Assays:
Type in all cases: in vivo
[1] = test system: ragweed (common ragweed, Ambrosia elatior); test: Test A preemergence; details: Ambrosia artemisiifolia, pre-emergence, 240 h, 0 to 100 scale (0 no effect, 100 complete control), read-out: Plant response rating, Ragweed
Method in brief: (§1)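 In a loam soil and sand blend, planted seeds got a preemergence directed soil spray, and young plants at the one- to two-leaf stage, 2–10 cm high, got a postemergence application; ~10 d greenhouse hold; injury rated visually, 0 = none, 100 = complete control.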

[2] = test system: pigweed (Amaranthus retroflexus); test: Test A preemergence; details: Amaranthus retroflexus, pre-emergence, 240 h, 0 to 100 scale (0 no effect, 100 complete control), read-out: Plant response rating, Pigweed
[3] = test system: giant foxtail (Setaria faberii); test: Test A preemergence; details: Setaria faberi, pre-emergence, 240 h, 0 to 100 scale (0 no effect, 100 complete control), read-out: Plant response rating, Foxtail, Giant
Method in brief: as §1

[4] = test system: ryegrass, Italian (Italian ryegrass, Lolium multiflorum); test: Test A preemergence; details: Lolium multiflorum, pre-emergence, 240 h, 0 to 100 scale (0 no effect, 100 complete control), read-out: Plant response rating, Ryegrass, Italian
Method in brief: as §1

Kochia (Kochia scoparia) [5] = test: Test A preemergence; details: Bassia scoparia, pre-emergence, 240 h, 0 to 100 scale (0 no effect, 100 complete control), read-out: Plant response rating, Kochia
Method in brief: as §1

[6] = test system: ragweed (common ragweed, Ambrosia elatior); test: Test A postemergence; details: Ambrosia artemisiifolia, post-emergence, 240 h, Postemergence, read-out: Plant response rating, Ragweed
Method in brief: as §1

[7] = test system: wheat (Triticum aestivum); test: Test A postemergence; details: Triticum aestivum, post-emergence, 240 h, Postemergence, read-out: Plant response rating, Wheat
Method in brief: as §1

[8] = test system: barnyardgrass (Echinochloa crus-galli); test: Test A postemergence; details: Echinochloa crus-galli, post-emergence, 240 h, Postemergence, read-out: Plant response rating, Barnyardgrass
Method in brief: as §1

[9] = test system: blackgrass (Alopecurus myosuroides); test: Test A postemergence; details: Alopecurus myosuroides, post-emergence, 240 h, Postemergence, read-out: Plant response rating, Blackgrass
Method in brief: as §1

[10] = test system: pigweed (Amaranthus retroflexus); test: Test A postemergence; details: Amaranthus retroflexus, post-emergence, 240 h, Postemergence, read-out: Plant response rating, Pigweed
Method in brief: as §1

[11] = test system: giant foxtail (Setaria faberii); test: Test A postemergence; details: Setaria faberi, post-emergence, 240 h, Postemergence, read-out: Plant response rating, Foxtail, Giant
Method in brief: as §1

corn (Zea mays) = test: Test A postemergence; details: Zea mays, post-emergence, 240 h, Postemergence
Method in brief: as §1

[12] = test system: ryegrass, Italian (Italian ryegrass, Lolium multiflorum); test: Test A postemergence; details: Lolium multiflorum, post-emergence, 240 h, Postemergence, read-out: Plant response rating, Ryegrass, Italian
Method in brief: as §1

Kochia (Kochia scoparia) [13] = test: Test A postemergence; details: Bassia scoparia, post-emergence, 240 h, Postemergence, read-out: Plant response rating, Kochia
Method in brief: as §1

[14] = test system: Galium (catchweed bedstraw, Galium aparine); test: Test A postemergence; details: Galium, post-emergence, 240 h, Postemergence, read-out: Plant response rating, Galium
Method in brief: as §1

[15] = 125 g ai/ha, visual injury after approx. 10 d, 0 to 100 scale, 0 no effect, 100 complete control
[16] = 500 g ai/ha, visual injury, 0 to 100 scale (0 no effect, 100 complete control), approx. 10 d

SMILES: CN1C[C@H](c2cccc(C(F)(F)F)c2)[C@@H](C(=O)Nc2ccc(F)c(F)c2F)C1=O [Compound 1389]
- pest or weed control at 500 g/ha ([1]; 500 g ai/ha, preemergence): 30%
- pest or weed control at 125 g/ha ([1]; Preemergence, 125 g ai/ha): 0%
- pest or weed control at 500 g/ha ([2]; 500 g ai/ha, preemergence): 80%
- pest or weed control at 125 g/ha ([2]; Preemergence, 125 g ai/ha): 70%
- pest or weed control at 500 g/ha ([3]; 500 g ai/ha, preemergence): 100%
- pest or weed control at 125 g/ha ([3]; Preemergence, 125 g ai/ha): 100%
- pest or weed control at 500 g/ha ([4]; 500 g ai/ha, preemergence): 90%
- pest or weed control at 125 g/ha ([4]; Preemergence, 125 g ai/ha): 80%
- pest or weed control at 500 g/ha (Kochia (Kochia scoparia) [5]; 500 g ai/ha, preemergence): 90%
- pest or weed control at 125 g/ha (Kochia (Kochia scoparia) [5]; Preemergence, 125 g ai/ha): 70%
- pest or weed control at 125 g/ha [6, 15]: 0%
- pest or weed control at 500 g/ha [6, 16]: 20%
- plant injury at 125 g/ha [7, 15]: 60%
- plant injury at 500 g/ha [7, 16]: 70%
- pest or weed control at 125 g/ha [8, 15]: 90%
- pest or weed control at 500 g/ha [8, 16]: 100%
- pest or weed control at 125 g/ha [9, 15]: 50%
- pest or weed control at 500 g/ha [9, 16]: 50%
- pest or weed control at 125 g/ha [10, 15]: 30%
- pest or weed control at 500 g/ha [10, 16]: 70%
- pest or weed control at 125 g/ha [11, 15]: 80%
- pest or weed control at 500 g/ha [11, 16]: 80%
- Corn plant response rating (crop injury, 0 = no effect, 100 = complete kill) at 125 g/ha (corn (Zea mays); [15]): 90%
- Corn plant response rating (crop injury, 0 = no effect, 100 = complete kill) at 500 g/ha (corn (Zea mays); [16]): 90%
- pest or weed control at 125 g/ha [12, 15]: 70%
- pest or weed control at 500 g/ha [12, 16]: 80%
- pest or weed control at 125 g/ha (Kochia (Kochia scoparia) [13]; [15]): 60%
- pest or weed control at 500 g/ha (Kochia (Kochia scoparia) [13]; [16]): 80%
- pest or weed control at 125 g/ha [14, 15]: 60%
- pest or weed control at 500 g/ha [14, 16]: 70%
